The values that follow come from patent US20230060873A1, “COMPOUNDS AND METHODS FOR FORMING ION CHANNELS IN BIOLOGICAL MEMBRANES” (Washington University, priority 2021, published 2023).

The test system of one assay is B. subtilis membrane. The assay can be described thus: DiSC3(5) depolarization assay, lariat ethers. Type of assay: cell-based, Bacillus subtilis. To be noted: 2 μM compound; 60 mM KCl, NaCl or NMDG-Cl; NMDG-MeSO3 solution; 25° C. As for the experimental part:
Dialkylated lariat ethers LEC6-LEC14 were then tested for their ability to depolarize a B. subtilis membrane using the fluorescent dye 3,3-dipropylthiadicarbocyanine (DiSC3(5)), which undergoes membrane voltage-dependent partitioning between the intracellular and the extracellular medium. FIGS. 23-31 show the time course of the DiSC3(5) fluorescence due to the activity of dialkylated lariat ethers with alkyl chains 6 to 14 carbons in length. The experiment was performed in a NMDG-MeSO3 solution (100 mM NMDG, 10 mM HEPES, pH adjusted to 7.4 with methanesulfonic acid). The events are: t1, addition of dye; t2, addition of B. subtilis; t3, addition of a 2 M KCl or a 2 M NMDG-Cl solution up to a final concentration of 60 mM; t4, addition of dialkylated lariat ether up to 2 μM. Control experiments were performed that were similar to the two previously described experiments, with the exception that additional NMDG-MeSO3 solution without cells was added at timepoint t2. The experiments were normalized relative to the final fluorescence intensity in the control experiments, as described below.
To conduct the experiments shown in FIGS. 23-31, a 2-mL liquid culture of B. subtilis cells was grown at 37° C. in LB media until OD600=0.600, and then collected by centrifugation at 2000 rpm during 3 min. The bacteria were washed once in NMDG-MeSO3 solution (100 mM NMDG, 10 mM HEPES, pH adjusted to 7.4 with methanesulfonic acid) or dextrose solution (200 mM dextrose, 10 mM Tris, pH adjusted to 7.4 with HCl) depending on the experiment. The centrifugation step was repeated and the bacteria were resuspended until OD600=1.0 in the same solution. The working dye solution was a 200 μM solution of DiSC3(5) (3,3′-dipropylthiadicarbocyanine iodide; Tokyo Chemical Industry) in DMSO. […] After 150 sec (timepoint t3, 250 sec) the fluorescence stabilized to a minimum intensity and 100 μL of 2M NMDG-Cl, 2M NaCl or 2 M KCl solution was added to reach a about 60 mM final concentration of the salt. […] Fluorescence intensity was recorded each second using a Horiba Fluoromax 4 spectrometer (excitation wavelength=640 nm; emission wavelength=670 nm). […] To normalize the fluorescence, experiments in the same conditions but without adding bacteria were performed, normalization was done by dividing the fluorescence by the final fluorescence level of these experiments.
Cell hyperpolarization (more negatively charged inside the cell) results in an uptake of the dye, while cell membrane depolarization (more positively charged inside the cell) results in a release of the dye. The accumulation of the dye in the interior of the cell can be detected by a decrease in fluorescence due to self-quenching, which enables the dye to be utilized as an indirect reporter of changes in cell membrane voltage. […]

Another assay deals with B. subtilis cells. As to the kind of experiment: Lactate dehydrogenase release (resofurin fluorescence), MAcBCE/MAkBCE and controls. It counts as cell-based, Bacillus subtilis. The following applies: 37° C, potassium lactate/NAD+ solution. How it is done: A 2 mL liquid culture of transformed B. subtilis cells was grown at 37° C. in LB media supplemented with […] kanamycin, until OD600=0.6. Cells were collected by centrifugation at 2000 rpm over 3 min. The bacterial pellet was washed twice in lactate/NAD^+ solution (95 mM potassium lactate, 10 mM nicotinamide adenine dinucleotide (NAD^+), 10 mM HEPES, pH adjusted to 7.4 with KOH). After the last centrifugation step, the bacteria were resuspended until OD600=1.0 in the lactate/NAD^+ solution, then diluted 100× in the same solution. The working fluorophore solution was a 1 mM of resazurin sodium salt (Alfa Cesar) in water. The experiment was started with 3 mL of lactate/NAD^+ solution in a quartz cuvette, then 3.1 μL of resazurin solution was added (timepoint t1, 50 sec) for a 1 μM final concentration, followed by the addition of 100 μL of the diluted B. subtilis suspension (timepoint t2, 100 sec). After 150 sec (timepoint t3, 250 sec), 10 μL of diaphorase (Worthinton Biochemical Corporation) 10 mg/mL solution was added. The final step involved the addition of 0.62 μL of a 10 mM stock solution of dialkylated diaza lariat ether (LEC10) in TFE (timepoint t4, 400 sec), for a final LEC10 concentration of 2 μM; or 3.1 μL of a 2 mM stock solution of valinomycin in DMSO, for a final valinomycin concentration of 2 μM; or 3.1 μL of a 20 mg/mL stock solution of lysozyme in lactate/NAD^+ solution, for a final lysozyme concentration of 20 μg/mL; or 3.1 μL of 10 mM stock solution of each MAcBCE or MAkBCE compounds in TFE, for final concentrations of 10 μM. Fluorescence intensity was recorded each second using a Horiba Fluoromax 4 spectrometer (λexcitation=550 nm; λemission=583 nm). […] To normalize, the fluorescence intensity was divided by the fluorescence level just before timepoint t4. […]
Experiments were repeated at least three times per condition. To normalize, the fluorescence intensity was divided by the fluorescence level just before timepoint t4.

In the case of `CC(C)[C@@H]1NC(=O)[C@H](C)OC(=O)[C@@H](C(C)C)NC(=O)[C@@H](C(C)C)OC(=O)[C@H](C(C)C)NC(=O)[C@H](C)OC(=O)[C@@H](C(C)C)NC(=O)[C@@H](C(C)C)OC(=O)[C@H](C(C)C)NC(=O)[C@H](C)OC(=O)[C@@H](C(C)C)NC(=O)[C@@H](C(C)C)OC1=O` [valinomycin], the “relative DiSC3(5) release in the presence of different cations” value in the assay with B. subtilis membrane is listed as “only when K^+ was added”. Also, the “resofurin fluorescence (LDH release)” value with B. subtilis cells (2 μM) is reported as “no effect”. Turning to lysozyme, the “resofurin fluorescence (LDH release)” value with B. subtilis cells (20 μg/mL) is “increase in the resofurin fluorescence levels”.
